Our source for the IC50 values is patent US10130630B2, “BTK inhibitors” (MERCK SHARP & DOHME CORP., priority 2014, dated 2018).

A word on the IC50: it is the concentration that gives 50% inhibition.

The target of assay [1] is T1, BTK enzyme (full-length BTK, hBTK) (Homo sapiens, UniProt Q06187).
T1 construct: recombinant protein from baculovirus-transfected Sf9 cells: full-length BTK, 6HIS-tag cleaved; 6HIS (cleaved yes); made in house; host or cells: baculovirus-transfected Sf9 cells
The assay can be described thus: Btk enzyme activity assay (LANCE TR-FRET). Conditions: 50 pM hBTK, 25 μM ATP, 60 minute compound and enzyme incubation, read-out: BTK binding IC50. The format is biochemical. The method, then:
BTK enzymatic activity was determined with the LANCE (Lanthanide Chelate Excite) TR-FRET (Time-resolved fluorescence resonance energy transfer) assay. […] To each well of a black non-binding surface Corning 384-well microplate (Corning Catalog #3820), 5 nL of compound (2000 fold dilution in final assay volume of 10 μL) was dispensed, followed by the addition of 7.5 μL of 1× kinase buffer (50 mM Hepes 7.5, 10 mM MgCl2, 0.01% Brij-35, 1 mM EGTA, 0.05% BSA & 1 mM DTT) containing 5.09 pg/μL (66.67 pM) of BTK enzyme (recombinant protein from baculovirus-transfected Sf9 cells: full-length BTK, 6HIS-tag cleaved). Following a 60 minute compound and enzyme incubation, each reaction was initiated by the addition of 2.5 μL 1× kinase buffer containing 8 μM biotinylated “A5” peptide (Biotin-[…]-NH2) (SEQ.ID.NO.: 1), and 100 μM ATP. The final reaction in each well of 10 μL consists of 50 pM hBTK, 2 μM biotin-A5-peptide, and 25 μM ATP. Phosphorylation reactions were allowed to proceed for 120 minutes. Reactions were immediately quenched by the addition of 20 uL of 1× quench buffer (15 mM EDTA, 25 mM Hepes 7.3, and 0.1% Triton X-100) containing detection reagents (0.626 nM of LANCE-Eu-W1024-anti-phosphoTyrosine antibody, PerkinElmer and 86.8 nM of Streptavidin-conjugated Dylight 650, Dyomics/ThermoFisher Scientific). After 60 minutes incubation with detection reagents, reaction plates were read on a PerkinElmer EnVision plate reader using standard TR-FRET protocol. Briefly, excitation of donor molecules (Eu-chelate:anti-phospho-antibody) with a laser light source at 337 nm produces energy that can be transferred to Dylight-650 acceptor molecules if this donor:acceptor pair is within close proximity. Fluorescence intensity at both 665 nm (acceptor) and 615 nm (donor) are measured and a TR-FRET ratio calculated for each well (acceptor intensity/donor intensity). IC50 values were determined by 4 parameter robust fit of TR-FRET ratio values vs. (Log10) compound concentrations.
The following Table 2 provides specific IC50 values for all the examples. The IC50 values set forth below were determined according to Assay method described above.
Background: Time-resolved FRET reads energy transfer from a long-lived donor to a nearby acceptor.

The subject of assay [2] is adenosine uptake into HeLa cells. Description: [3H]Adenosine uptake assay in HeLa cells. The note with it: 60 minutes uptake, read-out: ADU inhibition IC50 (adenosine uptake inhibition potency). In kind it is cell-based. The method, then:
Compounds were also screened in an adenosine uptake functional cellular assay using the protocol described below.
Adenosine uptake activity was determined by monitoring the accumulation of tritiated adenosine into HeLa cells (ATCC catalog # CCL-2) using a PMT-based radiometric detection instrument. In this assay, the potency (IC50) of each compound was determined from a ten point (1:3 serial dilution; final compound concentration range in assay from 10 μM to 0.032 nM) titration curve using the following outlined procedure. To each well of a 96-well CytoStar-T scintillating microplate (Perkin Elmer Catalog # RPNQ0163), 25 000 HeLa cells in 100 μL of growth medium comprising: Minimum Essential Media (Life Technologies Catalog # 11095-080)+10% (v/v) foetal bovine serum (FBS; Sigma Aldrich Catalog # F2442) was added. These cells were incubated overnight at 37° C. in a humidified atmosphere with 5% (v/v) CO2. After this time the growth medium was removed and replaced with 40 μL assay medium comprising: Hanks balanced salts solution (HBSS; Thermo Fisher Catalog # SH30268.01)+5% (v/v) FBS. Compound stock solutions in DMSO were diluted in assay medium to 2.5× final compound concentration maintaining a constant DMSO concentration of 0.25% (v/v). 40 μL of compound in assay medium was dispensed into individual wells of the Cytostar-T plates and the plates were incubated for 30 minutes under ambient laboratory conditions. Following this incubation, 20 μL of 500 nM [^3H]adenosine (American Radiolabeled Chemicals Inc. Catalog # ART0287) in assay medium was added and incubated for a further 60 minutes under ambient laboratory conditions. The amount of radiolabel accumulation was then determined using a Perkin Elmer Topcount NXT microplate reader. In brief, HeLa cells adhere to the bottom of the Cytostar-T plate, uptake of [^3H]adenosine into these cells brings the radiolabel into sufficient proximity to excite the scintillant in the base of the plates. These events are captured by single PMT, time-resolved coincidence counting. IC50 values were determined by 4 parameter robust fit of counts per second values vs. (Log10) compound concentrations.

SMILES strings stand for the structures. Like-named read-outs stand apart in the source and are kept apart here.

T1 sequence (Q06187 whole entry): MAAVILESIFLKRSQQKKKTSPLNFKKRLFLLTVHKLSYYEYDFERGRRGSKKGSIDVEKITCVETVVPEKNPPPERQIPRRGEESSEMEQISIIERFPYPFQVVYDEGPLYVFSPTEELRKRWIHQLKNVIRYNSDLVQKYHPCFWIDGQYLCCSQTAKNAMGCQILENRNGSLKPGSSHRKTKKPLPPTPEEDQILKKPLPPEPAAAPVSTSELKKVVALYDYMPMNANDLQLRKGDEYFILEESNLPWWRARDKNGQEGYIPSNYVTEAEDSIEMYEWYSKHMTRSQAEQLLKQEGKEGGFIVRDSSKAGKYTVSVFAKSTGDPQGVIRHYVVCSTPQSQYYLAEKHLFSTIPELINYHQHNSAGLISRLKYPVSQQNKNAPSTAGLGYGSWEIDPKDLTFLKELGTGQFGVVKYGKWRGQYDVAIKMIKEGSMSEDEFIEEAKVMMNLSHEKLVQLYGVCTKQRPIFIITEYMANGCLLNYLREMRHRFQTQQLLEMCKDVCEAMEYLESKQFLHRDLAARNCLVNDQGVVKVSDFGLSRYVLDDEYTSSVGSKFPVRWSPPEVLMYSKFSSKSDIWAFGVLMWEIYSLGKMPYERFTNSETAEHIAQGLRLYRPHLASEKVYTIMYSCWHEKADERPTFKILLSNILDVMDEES

`CCOc1cc(C(=O)Nc2cc(C(F)(F)F)ccn2)ccc1-c1nc([C@@H]2CC[C@H]3CNC4(CCC4)C(=O)N3C2)n2ccnc(N)c12` [Compound 17, 4-{8-amino-3-[(7′R,9a′S)-4′-oxohexahydro-2′H-spiro[cyclobutane-1,3′-pyrido[1,2-a]pyrazin]-7′-yl]imidazo[1,5-a]pyrazin-1-yl}-3-ethoxy-N-[4-(trifluoromethyl)pyridin-2-yl]benzamide]: the IC50 in assay [1] worked out at 0.000501 µM; in assay [2] (Homo sapiens, HeLa) it was 1.7 µM.

In the case of `CCOc1cc(C(=O)Nc2cc(C(F)(F)F)ccn2)ccc1-c1nc([C@@H]2CC[C@@H]3N(C2)C(=O)CC32CC2)n2ccnc(N)c12` [Compound 18, 4-{8-amino-3-[(6′R,8a′S)-3′-oxohexahydro-5′H-spiro[cyclopropane-1,1′-indolizin]-6′-yl]imidazo[1,5-a]pyrazin-1-yl}-3-ethoxy-N-[4-(trifluoromethyl)pyridin-2-yl]benzamide], the IC50 in assay [1] was found to be 0.000127 µM; in assay [2] (Homo sapiens, HeLa), 1.11 µM.

Turning to `CCOc1cc(C(=O)Nc2cc(C(F)(F)F)ccn2)ccc1-c1nc([C@H]2CC[C@H]3N(C2)C(=O)CC32CC2)n2ccnc(N)c12` [Compound 19, 4-{8-amino-3-[(6′S,8a′R)-3′-oxohexahydro-5′H-spiro[cyclopropane-1,1′-indolizin]-6′-yl]imidazo[1,5-a]pyrazin-1-yl}-3-ethoxy-N-[4-(trifluoromethyl)pyridin-2-yl]benzamide], the IC50 in assay [1] worked out at 0.00381 µM; in assay [2] (Homo sapiens, HeLa), 0.613 µM.

For `CCOc1cc(C(=O)Nc2cc(C(F)(F)F)ccn2)cc(F)c1-c1nc([C@@H]2CC[C@@H]3N(C2)C(=O)CC32CC2)n2ccnc(N)c12` [Compound 20, 4-{8-amino-3-[(6′R,8a′S)-3′-oxohexahydro-5′H-spiro[cyclopropane-1,1′-indolizin]-6′-yl]imidazo[1,5-a]pyrazin-1-yl}-3-ethoxy-5-fluoro-N-[4-(trifluoromethyl)pyridin-2-yl]benzamide], the IC50 in assay [1] amounted to 0.000171 µM; in assay [2] (Homo sapiens, HeLa) it was 0.871 µM.

In the case of `CCOc1cc(C(=O)Nc2cc(C3CC3)ccn2)cc(F)c1-c1nc([C@@H]2CC[C@@H]3N(C2)C(=O)CC32CC2)n2ccnc(N)c12` [Compound 21, 4-{8-amino-3-[(6′R,8a′S)-3′-oxohexahydro-5′H-spiro[cyclopropane-1,1′-indolizin]-6′-yl]imidazo[1,5-a]pyrazin-1-yl}-N-(4-cyclopropylpyridin-2-yl)-3-ethoxy-5-fluorobenzamide], the IC50 was 0.00016 µM in assay [1] and 1.06 µM in assay [2] (Homo sapiens, HeLa).

On to `CCOc1cc(C(=O)Nc2cc(C(F)(F)F)n(C)n2)cc(F)c1-c1nc(C2CCC3N(C2)C(=O)CC32CC2)n2c(F)cnc(N)c12` (centres unmarked) [Compound 22, 4-[8-amino-5-fluoro-3-(3′-oxohexahydro-5′H-spiro[cyclopropane-1,1′-indolizin]-6′-yl)imidazo[1,5-a]pyrazin-1-yl]-3-ethoxy-5-fluoro-N-[1-methyl-5-(trifluoromethyl)-1H-pyrazol-3-yl]benzamide], for which the concentration for half-maximal inhibition (IC50) amounted to 0.000269 µM in assay [1] and 1.43 µM in assay [2] (Homo sapiens, HeLa).

Take `CCOc1cc(C(=O)Nc2cc(C(F)(F)F)n(C)n2)cc(F)c1-c1nc(C2CCC3N(C2)C(=O)CC32CC2)n2c(F)cnc(N)c12` (centres unmarked) [Compound 23, 4-[8-amino-5-fluoro-3-(3′-oxohexahydro-5′H-spiro[cyclopropane-1,1′-indolizin]-6′-yl)imidazo[1,5-a]pyrazin-1-yl]-3-ethoxy-5-fluoro-N-[1-methyl-5-(trifluoromethyl)-1H-pyrazol-3-yl]benzamide]: the results for the IC50 in assay [1] and in assay [2] were 0.0059 µM and 2.09 µM, respectively.

Consider `CCOc1cc(C(=O)Nc2cc(C(F)(F)F)ccn2)ccc1-c1nc([C@@H]2CC[C@@H]3N(C2)C(=O)C2(CC2)C3(F)F)n2ccnc(N)c12` [Compound 27, 4-{8-amino-3-[(6′R,8a′S)-1′,1′-difluoro-3′-oxohexahydrospiro[cyclopropane-1,2′-indolizin]-6′-yl]imidazo[1,5-a]pyrazin-1-yl}-3-ethoxy-N-[4-(trifluoromethyl)pyridin-2-yl]benzamide], for which the IC50 in assay [1] came to 0.0016 µM; in assay [2] (Homo sapiens, HeLa), 1.14 µM.

For the molecule `CCOc1cc(C(=O)Nc2cc(C(F)(F)F)ccn2)cc(F)c1-c1nc([C@@H]2CC[C@@H]3N(C2)C(=O)C2(CC2)C3(F)F)n2ccnc(N)c12` [Compound 28, 4-{8-amino-3-[(6′R,8a′S)-1′,1′-difluoro-3′-oxohexahydrospiro[cyclopropane-1,2′-indolizin]-6′-yl]imidazo[1,5-a]pyrazin-1-yl}-3-ethoxy-5-fluoro-N-[4-(trifluoromethyl)pyridin-2-yl]benzamide], the IC50 is 0.00154 µM in assay [1] and 1.95 µM in assay [2] (Homo sapiens, HeLa).

Consider `COc1cc(C(=O)Nc2cc(C(F)(F)F)ccn2)ccc1-c1nc([C@H]2CC[C@H]3N(C2)C(=O)C2(CC2)C3(F)F)n2ccnc(N)c12` [Compound 29, 4-{8-amino-3-[(6′S,8a′R)-1′,1′-difluoro-3′-oxohexahydrospiro[cyclopropane-1,2′-indolizin]-6′-yl]imidazo[1,5-a]pyrazin-1-yl}-3-methoxy-N-[4-(trifluoromethyl)pyridin-2-yl]benzamide], for which the 50% inhibitory concentration (IC50) in assay [1] worked out at 0.00151 µM; in assay [2] (Homo sapiens, HeLa) it was 0.672 µM.

For the molecule `COc1cc(C(=O)Nc2cc(C(F)(F)F)ccn2)cc(F)c1-c1nc([C@@H]2CC[C@@H]3N(C2)C(=O)C2(CC2)C3(F)F)n2ccnc(N)c12` [Compound 30, 4-{8-amino-3-[(6′R,8a′S)-1′,1′-difluoro-3′-oxohexahydrospiro[cyclopropane-1,2′-indolizin]-6′-yl]imidazo[1,5-a]pyrazin-1-yl}-3-fluoro-5-methoxy-N-[4-(trifluoromethyl)pyridin-2-yl]benzamide], the IC50 in assay [1] is 0.00161 µM; in assay [2] (Homo sapiens, HeLa), 1.07 µM.

In the case of `Nc1nccn2c([C@H]3CC[C@H]4N(C3)C(=O)C3(CC3)C4(F)F)nc(-c3ccc(C(=O)Nc4cc(C(F)(F)F)ccn4)cc3)c12` [Compound 31, 4-{8-amino-3-[(6′S,8a′R)-1′,1′-difluoro-3′-oxohexahydrospiro[cyclopropane-1,2′-indolizin]-6′-yl]imidazo[1,5-a]pyrazin-1-yl}-N-[4-(trifluoromethyl)pyridin-2-yl]benzamide], the IC50 in assay [1] stood at 0.00041 µM; in assay [2] (Homo sapiens, HeLa) it was 0.144 µM.

For the molecule `CCOc1cc(C(=O)Nc2cc(C(F)(F)F)n(C)n2)ccc1-c1nc([C@@H]2CC[C@@H]3N(C2)C(=O)C2(CC2)C3(F)F)n2ccnc(N)c12` [Compound 32, 4-{8-amino-3-[(6′R,8a′S)-1′,1′-difluoro-3′-oxohexahydrospiro[cyclopropane-1,2′-indolizin]-6′-yl]imidazo[1,5-a]pyrazin-1-yl}-3-ethoxy-N-[1-methyl-5-(trifluoromethyl)-1H-pyrazol-3-yl]benzamide], the IC50 in assay [1] amounted to 0.00622 µM; in assay [2] (Homo sapiens, HeLa) it was 2.95 µM.
